{"source": "patent US6541027B1", "about": "“Lactic acid bacteria with anxiolytic properties and uses thereof” (Compagnie Gervais Danone, priority 1999, dated 2003)", "key": {"SPF Wistar/AF male rats [1]": {"tested_on": "SPF Wistar/AF male rats", "experiment": "Sedative effect (locomotive and exploratory activity) during the Conditioned Defensive Burying test", "type": "in vivo, rat", "conditions": "Example 2; test 1 on day 6; 5 ml/kg p.o. daily (diazepam 3 mg/kg p.o.)", "procedure": "The tests were carried out according to the protocol described in example 2 above, on one hundred and fifty eight SPF Wistar/AF males (IFFA-CREDO breeding center, 69—St Germain sur Arbresles, France) weighing 260 to 280 g. After a week's familiarization with the laboratory conditions, the rats were randomly divided into 13 treatment groups. The rats of the various groups were handled in the same manner and under the same conditions.\nAll the products were orally administered daily for 6 days at the same times at the doses of 5 ml/kg using syringes equipped with intragastric forced-feeding probes (HARVARD APPARATUS, 91—Les Ulis, France). On the day for the test, they were administered 6 hours before the burying test.\nnumber of […]: the rat adopts the vertical position while resting on its hind legs;\nnumber of passes from one side of the cage to another."}, "SPF Wistar/AF male rats [2]": {"tested_on": "SPF Wistar/AF male rats", "experiment": "Conditioned Defensive Burying test, overall stress score", "type": "in vivo, rat", "conditions": "for overall stress score during test 2: test 2 on day 8, 6 hours after administration (diazepam 3 mg/kg p.o. daily, 1 hour before test); for overall stress score: 5 ml/kg p.o. daily for 6 days", "procedure": "The anxiolytic effect is evaluated using the Conditioned Defensive Burying model, which was developed from the procedure by J. P. PINEL and D. TREIT (PINEL and TREIT, J. Comp. & Physiol. Psychol., 92, 708-712, 1978; TREIT et al., Pharmacol. Biochem. Behav., 15, 619-626, 1981). This model uses the natural propensity of most rodents to bury themselves from a stressful source of stimulus (TREIT, Pharmacol. Biochem. Behav., 22, 1, 47-52, 1985; MEERT and COLPAERT, Psychopharmacology, 88, 445-450, 1986; CRAFT et al., Pharmacol. Biochem. Behav., 30, 3, 775-780, 1988; TREIT, Pharmacol. Biochem. Behav., 36, 203-205, 1990).\nSeventy two SPF Wistar/AF male rats (IFFA-CREDO breeding center, 69—St-Germain sur l'Arbresle, France) weighing 320 to 340 g were used. On reception, the rats were weighed, marked and divided into groups of 4 in type F polycarbonate cages (48×27×20 cm, U.A.R., 91—Epinay-Sur-Orge, France). The animals were stalled in an air-conditioned animal house, at a temperature of 22-24° C. Food (M25 biscuits, Ets […], 77—Provins, France) and drink were available to the rats ad libitum. They were subjected to a light-darkness cycle of 12 hours (light from 24 h to 12 h).\nAfter a week's familiarization with the laboratory conditions, the 72 rats were randomly divided into 6 groups (n=12). The rats in the different groups were all handled in the same way and under the same conditions.\nHabituation and the tests were carried out in a transparent cage having the dimensions 44×28×18 cm, whose base is covered with sawdust over a thickness of 5 cm. In the middle of a lateral face, an orifice allows the attachment of an electric probe, 2 cm above the level of the sawdust.\nIt is a probe made of plexiglas having the dimensions 7×2×0.5 cm, covered with a copper printed circuit in which the gap between the wires is 1 mm, chosen so that one leg of the rat coming to rest on the probe easily makes contact between them, thus allowing the passage of current.\nThe probe is connected to a manually triggered generator of electric shocks of 0 to 8 mA (OPEN-SYSTEMS, 54—Maxeville, France).\nIn the faintly illuminated experimental room, a video camera was placed in front of the cage of the setup, at a distance of one meter. The camera is connected to a video recorder and to a control monitor, which are placed in an adjacent room with the electric shock generator.\nThe experiment was carried out according to a double blind design.\nDuring the 2 days preceding the first test, the rats were transported from the animal house to the experimental room and introduced into the experimental device in order to habituate them to both the handling and to the cage of the device in the absence of the electrode. Each group of 4 rats was placed in the device for 20 minutes. The sawdust is changed, leveled to a uniform height of 5 cm, before the period of habituation of each of the groups.\nThe electric probe is inserted into the cage before the beginning of the first test. Each rat is placed in the experimental cage on the side opposite the probe.\nDuring the first test (test 1), a single electric shock, of low intensity (2 mA) is delivered to the animal when it places a hind leg for the first time on the probe.\nFollowing the electric shock, the behavior of each rat is recorded for 5 minutes. […] The probe is cleaned after each rat and the sawdust is changed and leveled to a uniform height of 5 cm before the test session for each cage of rats.\nThe products L, 3ST, 3S and 3S+P were orally administered daily at the same times, at the doses of 5 ml/kg by means of syringes provided with intragastric forced-feeding probes (HARVARD APPARATUS, 91—Les Ulis, France). The burying tests (test 1 on day 6 and test 2 on day 8) were carried out 6 hours after the administration of the products.\nThe positive control is diazepam (3 mg/kg), which was suspended in an aqueous solution of methyl cellulose at 1% and was orally administered daily, for the same period. […]"}}, "note": "“Also recorded” adds a separate entry of the source."}
{"smiles": "CN1C(=O)CN=C(c2ccccc2)c2cc(Cl)ccc21", "note": "[diazepam]", "values": [{"measurement": "sedative effect during test 1", "setting": "SPF Wistar/AF male rats [1]", "value": "sedative effect"}, {"measurement": "overall stress score during test 1", "setting": "SPF Wistar/AF male rats [2]; Example 2, 5 ml/kg p.o. daily, test 1 on day 6, 6 hours after administration (diazepam 3 mg/kg p.o. daily, 1 hour before test), vs. control product L", "value": "tends to reduce the overall stress score; also recorded: showed only a trend to reduce the overall stress score"}, {"measurement": "overall stress score during test 2", "setting": "SPF Wistar/AF male rats [2]; Example 2, 5 ml/kg p.o. daily, vs. control product L", "value": "not significantly different from the product L"}, {"measurement": "overall stress score during test 2", "setting": "SPF Wistar/AF male rats [2]; Example 2, 5 ml/kg p.o. daily, vs. control product L, listed as Diazepam", "value": "no effect which is statistically different from that of the control"}, {"measurement": "phenomenon of tolerance (habituation) between test 1 and test 2", "setting": "SPF Wistar/AF male rats [2]; Example 2, daily oral administration, day 6 vs. day 8", "value": "phenomenon of tolerance observed"}, {"measurement": "overall stress score", "setting": "SPF Wistar/AF male rats [2]; Example 3, last dose 6 hours before test (diazepam 1-3 mg/kg p.o. over 6 days, 1 hour before test), vs. control product L", "value": "significantly lower overall stress scores; also recorded: significant antistress activity"}, {"measurement": "overall stress score", "setting": "SPF Wistar/AF male rats [2]; Example 5, test 1 hour after last dose (diazepam 1-3 mg/kg p.o., 1 hour before test), vs. control product L", "value": "significantly lower than that of the control product L"}]}
